Data: PubChem BioAssay AID248 (DTP/NCI, 2004)
Several values for one entry are separate records, joined by “and”; a condition that tells them apart may be missing. Equal values may be shown once. Toxic doses and inconclusive results are not listed. Rule as the data show it: active = T/C of 150% or more; inactive = T/C below 125%.

System: L1210 leukemia ip in BDF1 mice, survival T/C
Experiment: NCI In Vivo Anticancer Drug Screen. Data for tumor model L1210 Leukemia (intraperitoneal) in B6D2F1 (BDF1) mice
Conditions: higher = longer survival
Procedure, shortened: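 In this screen, tumor-bearing mice given compound are compared to those given vehicle, and their survival values are reported as a treated-to-control quotient.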

[1] = endpoint: mean survival time, dose: 50.0 mg/kg/injection, schedule: Q01DX009 (ip), vehicle: saline with Tween-80
[2] = endpoint: mean survival time, dose: 100.0 mg/kg/injection, schedule: Q04DX002 (ip), vehicle: saline with Tween-80
[3] = endpoint: mean survival time, dose: 200.0 mg/kg/injection, schedule: Q01DX009 (ip), vehicle: saline with Tween-80
[4] = endpoint: mean survival time, dose: 200.0 mg/kg/injection, schedule: Q04DX002 (ip), vehicle: saline with Tween-80
[5] = endpoint: mean survival time, dose: 100.0 mg/kg/injection, schedule: Q04DX003 (ip), vehicle: Klucel (hydroxypropylcellulose) (HPC)
[6] = endpoint: mean survival time, dose: 200.0 mg/kg/injection, schedule: Q04DX003 (ip), vehicle: Klucel (hydroxypropylcellulose) (HPC)
[7] = endpoint: mean survival time, dose: 100.0 mg/kg/injection, schedule: Q01DX Z (ip), vehicle: methylcellulose (MC)
[8] = endpoint: mean survival time, dose: 100.0 mg/kg/injection, schedule: Q04DX003 (ip), vehicle: saline
[9] = endpoint: mean survival time, dose: 200.0 mg/kg/injection, schedule: Q04DX003 (ip), vehicle: saline
[10] = endpoint: mean survival time, dose: 400.0 mg/kg/injection, schedule: Q04DX003 (ip), vehicle: saline
[11] = endpoint: mean survival time, dose: 25.0 mg/kg/injection, schedule: Q01DX009 (ip), vehicle: saline with Tween-80
[12] = endpoint: mean survival time, dose: 100.0 mg/kg/injection, schedule: Q01DX009 (ip), vehicle: saline with Tween-80
[13] = endpoint: mean survival time, dose: 100.0 mg/kg/injection, schedule: Q04DX003 (ip), vehicle: saline with Tween-80
[14] = endpoint: mean survival time, dose: 200.0 mg/kg/injection, schedule: Q04DX003 (ip), vehicle: saline with Tween-80
[15] = endpoint: mean survival time, dose: 400.0 mg/kg/injection, schedule: Q04DX003 (ip), vehicle: saline with Tween-80
[16] = endpoint: mean survival time, dose: 400.0 mg/kg/injection, schedule: Q01DX009 (ip), vehicle: saline with Tween-80
[17] = endpoint: mean survival time, dose: 400.0 mg/kg/injection, schedule: Q04DX002 (ip), vehicle: saline with Tween-80

Measured: T/C

CN(CCO)/N=N/c1[nH]ncc1C(N)=O
inactive: endpoint: mean survival time, dose: 54.0 mg/kg/injection, schedule: Q01DX009 (ip), vehicle: other 124 % of control | endpoint: mean survival time, dose: 472.25 mg/kg/injection, schedule: Q01DX001 (ip), vehicle: saline with Tween-80 109 % of control | endpoint: mean survival time, dose: 944.5 mg/kg/injection, schedule: Q01DX001 (ip), vehicle: saline with Tween-80 119 % of control | endpoint: median survival time, dose: 63.0 mg/kg/injection, schedule: Q01DX009 (ip), vehicle: saline 119 % of control
active: endpoint: mean survival time, dose: 176.0 mg/kg/injection, schedule: Q01DX009 (ip), vehicle: other 159 % of control | endpoint: mean survival time, dose: 345.0 mg/kg/injection, schedule: Q01DX009 (ip), vehicle: saline with Tween-80 163 % of control | endpoint: mean survival time, dose: 400.0 mg/kg/injection, schedule: Q01DX009 (ip), vehicle: other 159 % of control | endpoint: mean survival time, dose: 600.0 mg/kg/injection, schedule: Q01DX009 (ip), vehicle: other 189 % of control | endpoint: mean survival time, dose: 690.0 mg/kg/injection, schedule: Q01DX009 (ip), vehicle: saline with Tween-80 192 % of control | endpoint: mean survival time, dose: 900.0 mg/kg/injection, schedule: Q01DX009 (ip), vehicle: other 196 % of control | endpoint: median survival time, dose: 250.0 mg/kg/injection, schedule: Q01DX009 (ip), vehicle: saline 156 % of control | endpoint: median survival time, dose: 500.0 mg/kg/injection, schedule: Q01DX009 (ip), vehicle: saline 173 % of control | endpoint: median survival time, dose: 1000.0 mg/kg/injection, schedule: Q01DX009 (ip), vehicle: saline 201 % of control

Cc1ccc([N+](=O)[O-])cc1NC(=O)Nc1ccc(C(=O)O)cc1
inactive: endpoint: mean survival time, dose: 100.0 mg/kg/injection, schedule: Q01DX009 (ip), vehicle: Klucel (hydroxypropylcellulose) (HPC) 90 % of control | endpoint: mean survival time, dose: 200.0 mg/kg/injection, schedule: Q01DX009 (ip), vehicle: Klucel (hydroxypropylcellulose) (HPC) 98 % of control | endpoint: mean survival time, dose: 400.0 mg/kg/injection, schedule: Q01DX009 (ip), vehicle: Klucel (hydroxypropylcellulose) (HPC) 104 % of control

CCOC(=O)N/N=C/C(Br)=C\c1ccccc1
inactive: [1] 93 % of control | [2] 101 % of control | [3] 87 % of control | [4] 96 % of control

CCCC1(CC)CNC(=O)NC1=O (centres undefined)
inactive: endpoint: mean survival time, dose: 100.0 mg/kg/injection, schedule: Q01DX Z (ip), vehicle: saline 97 % of control | endpoint: mean survival time, dose: 200.0 mg/kg/injection, schedule: Q01DX Z (ip), vehicle: saline 92 % of control

CCOC(=O)c1cnc(SC)nc1NC(C)(C)C
inactive: [5] 101 % of control | [6] 100 % of control | endpoint: mean survival time, dose: 400.0 mg/kg/injection, schedule: Q04DX003 (ip), vehicle: Klucel (hydroxypropylcellulose) (HPC) 94 % of control

CC1(C)NC(=O)NC(=O)C1Br (centres undefined)
inactive: [7] 96 % of control

CC(=O)CC(=O)NCCNCCNC(=O)CC(C)=O
inactive: endpoint: mean survival time, dose: 100.0 mg/kg/injection, schedule: Q01DX009 (ip), vehicle: saline 88 % of control | [8] 91 % of control | endpoint: mean survival time, dose: 200.0 mg/kg/injection, schedule: Q01DX009 (ip), vehicle: saline 95 % of control | [9] 98 % of control | endpoint: mean survival time, dose: 400.0 mg/kg/injection, schedule: Q01DX009 (ip), vehicle: saline 97 % of control | [10] 100 % of control

O=C1C2CCN(CC2)C1Cc1ccccc1 (centres undefined)
inactive: endpoint: mean survival time, dose: 100.0 mg/kg/injection, schedule: Q04DX002 (ip), vehicle: saline 111 % of control | endpoint: mean survival time, dose: 200.0 mg/kg/injection, schedule: Q04DX002 (ip), vehicle: saline 107 % of control

O=C1CCN2CCC(=O)c3c(Cl)ccc1c32
inactive: endpoint: mean survival time, dose: 100.0 mg/kg/injection, schedule: Q01DX001 (ip), vehicle: other 100 % of control | endpoint: mean survival time, dose: 200.0 mg/kg/injection, schedule: Q01DX001 (ip), vehicle: other 97 % of control | endpoint: mean survival time, dose: 400.0 mg/kg/injection, schedule: Q01DX001 (ip), vehicle: other 100 % of control

NNC(=O)c1ccc([N+](=O)[O-])cc1
inactive: [11] 97 % of control | [1] 92 % of control | [12] 95 % of control | [13] 95 % of control

CCCCC(=O)OCC1OC(n2cnc3c(=S)nc[nH]c32)C(OC(=O)CCCC)C1OC(=O)CCCC (centres undefined)
active: endpoint: mean survival time, dose: 50.0 mg/kg/injection, schedule: Q01DX015 (ip), vehicle: carboxymethylcellulose (CMC) 151 % of control | endpoint: mean survival time, dose: 100.0 mg/kg/injection, schedule: Q01DX015 (ip), vehicle: carboxymethylcellulose (CMC) 172 % of control | endpoint: mean survival time, dose: 200.0 mg/kg/injection, schedule: Q01DX Z (ip), vehicle: carboxymethylcellulose (CMC) 161 % of control
inactive: endpoint: mean survival time, dose: 50.0 mg/kg/injection, schedule: Q01DX Z (ip), vehicle: carboxymethylcellulose (CMC) 117 % of control | endpoint: mean survival time, dose: 400.0 mg/kg/injection, schedule: Q01DX Z (ip), vehicle: carboxymethylcellulose (CMC) 87 % of control

c1ccc(-c2cc(-c3ccccc3)[nH]n2)cc1
inactive: [13] 100 % of control | [14] 110 % of control | [15] 105 % of control

C/C(=C(/CCO)SCCC(=O)c1ccc(C)cc1)N(C=O)Cc1cnc(C)nc1N
inactive: [8] 97 % of control | [9] 97 % of control | [10] 93 % of control

O=[N+]([O-])Cc1c2ccccc2nc2ccccc12
inactive: [1] 87 % of control | [12] 87 % of control | [3] 87 % of control

O=S(=O)(O)C(I)I
inactive: endpoint: mean survival time, dose: 6.25 mg/kg/injection, schedule: Q01DX001 (ip), vehicle: saline 103 % of control | endpoint: mean survival time, dose: 12.5 mg/kg/injection, schedule: Q01DX001 (ip), vehicle: saline 100 % of control | endpoint: mean survival time, dose: 25.0 mg/kg/injection, schedule: Q01DX001 (ip), vehicle: saline 98 % of control and 100 % of control | endpoint: mean survival time, dose: 100.0 mg/kg/injection, schedule: Q01DX001 (ip), vehicle: saline 103 % of control

CCOC(=O)C(Cc1ccc(OCc2ccccc2)c(OCc2ccccc2)c1)(NC(C)=O)C(=O)OCC
inactive: endpoint: mean survival time, dose: 100.0 mg/kg/injection, schedule: Q04DX003 (ip), vehicle: other 102 % of control | endpoint: mean survival time, dose: 200.0 mg/kg/injection, schedule: Q04DX003 (ip), vehicle: other 100 % of control | endpoint: mean survival time, dose: 400.0 mg/kg/injection, schedule: Q04DX003 (ip), vehicle: other 98 % of control

CCOC(=O)c1ccc(NC(=O)Nc2ccccc2Cl)cc1
inactive: [12] 93 % of control | [13] 91 % of control | [3] 87 % of control | [14] 93 % of control | [16] 92 % of control | [15] 94 % of control

Oc1ccccc1C=NCCN1CC1.Oc1ccccc1C=NCCN1CC1.[Ni+2]
inactive: endpoint: mean survival time, dose: 12.5 mg/kg/injection, schedule: Q01DX009 (ip), vehicle: saline with Tween-80 88 % of control | [11] 96 % of control | [8] 98 % of control

CCOc1ccc(/C=N/NC(=O)c2ccc(O)c(OC)c2)cc1OC
inactive: [12] 103 % of control | [3] 92 % of control | [16] 96 % of control

CCOC(=O)c1nn(C)c(=S)[nH]c1=O
inactive: [7] 92 % of control | endpoint: mean survival time, dose: 200.0 mg/kg/injection, schedule: Q01DX Z (ip), vehicle: methylcellulose (MC) 90 % of control

CSc1nc(N)c(N=Nc2ccc(S(=O)(=O)Nc3cc(C)nc(C)n3)cc2)c(=O)[nH]1
inactive: endpoint: mean survival time, dose: 100.0 mg/kg/injection, schedule: Q01DX001 (ip), vehicle: carboxymethylcellulose (CMC) 103 % of control | endpoint: mean survival time, dose: 200.0 mg/kg/injection, schedule: Q01DX001 (ip), vehicle: carboxymethylcellulose (CMC) 95 % of control | endpoint: mean survival time, dose: 400.0 mg/kg/injection, schedule: Q01DX001 (ip), vehicle: carboxymethylcellulose (CMC) 97 % of control

CCOC(=O)c1n[nH]c2ccccc12
inactive: [2] 101 % of control | [4] 106 % of control | [17] 97 % of control

O=C(NC(=S)Nc1ccc(O)cc1)c1cccc([N+](=O)[O-])c1
inactive: endpoint: mean survival time, dose: 100.0 mg/kg/injection, schedule: Q01DX001 (ip), vehicle: saline with Tween-80 87 % of control | [12] 99 % of control and 103 % of control | [2] 101 % of control | [13] 94 % of control | endpoint: mean survival time, dose: 200.0 mg/kg/injection, schedule: Q01DX001 (ip), vehicle: saline with Tween-80 91 % of control | [3] 92 % of control and 100 % of control | [4] 97 % of control | [14] 96 % of control | endpoint: mean survival time, dose: 400.0 mg/kg/injection, schedule: Q01DX001 (ip), vehicle: saline with Tween-80 101 % of control | [16] 92 % of control and 100 % of control | [17] 90 % of control | [15] 95 % of control

CCCCS/C=C1/CC2(C)C(CCC3C4CCC(O)C4(C)CCC32)CC1=O (centres undefined)
inactive: [5] 89 % of control | [6] 91 % of control

CC/C=C(CC)/C(CC)=C(/C#N)CC
inactive: [8] 108 % of control | [9] 93 % of control | [10] 98 % of control
